# Reference: US8119812B2, “Thiazolidinone derivative” (SBI Biotech Co., Ltd., priority 2009, dated 2012)
# System: HeLa cells
# Assay: Cell proliferation inhibitory activity, WST-1 assay, HeLa cells
# Assay type: cell-based
# Conditions: FIG. 1; incubation for 24 hours after adding compound; absorbance at 450 nm (WST-1); cell line not given
# Method: Cell proliferation inhibitory activity of the thiazolidinone derivatives shown in Tables 2 to 21 and 26 to 29 were evaluated according to the following procedure.
# HeLa cells (ATCC) were cultured in a medium (DMEM-10% FCS-Penicillin/Streptomycin) on 10-cm dishes. The medium was removed from the HeLa cells (ATCC) in healthy growth conditions (70 to 90% confluent), the cells were detached by treating with 2 ml of trypsin (TrypL Express, GIBCO), and then the cells were collected using the same medium.
# After the collected cells were suspended in the medium at a concentration of 5×10^4 cells/mL, 100 μL, each of the cells were seeded on 96-well plates (FALCON, 3530) at a concentration of 5×10^3 […]. Each medium alone without cells was added to the blank wells. The wells were incubated in a 5% CO2 incubator. The culture media used are as follows.
# HeLa cells: DMEM-10% FCS-Penicillin/Streptomycin,
# The following day after the start of culturing, the medium was replaced with that including candidate compounds. At the beginning, the candidate compounds were diluted with DMSO, and a 10-step dilution series from 0 μM to 12.5 mM was prepared. 249 μL of the medium was added to 1.5-ml tubes. Then, 1 μL of the compound diluted with DMSO was added thereto at each concentration, and this was mixed. By this procedure, the ratio of DMSO included becomes 1/250. More specifically, in case of the following dilution series, the final concentrations of candidate compounds are as follows.
# After removing the medium in wells, each candidate compound was added in duplicate to each well at a volume of 100 μL per one concentration. […]
# On the next day or the day after the next day (24 to 48 hours later), 10 μL of Cell Proliferation Reagent WST-1 (ROCHE) was added to each well. […] The formed pigment can be assayed by measuring the absorbance at 450 nm. After incubation for an hour in a CO2 incubator, the absorbance at 450 nm was measured using a microplate reader. The values were evaluated by subtracting the blank value, and plotted by curve-fitting using the Prism software, and IC50 was calculated.
row,Structure (SMILES),cell proliferation-inhibiting effect
1,"Cc1cc(OCCN(C)C)ccc1/N=C1/NC(=O)/C(=C/c2cnc(NC(=O)C3CC3)s2)S1 [Compound 119, (2Z,5Z)-N-(5{[2-({4-[2-(dimethylamino)ethoxy]-2-methylphenyl}azamethylene)-4-oxo(1,3-thiazolidin-5-ylidene)]methyl}(1,3-thiazol-2-yl))cyclopropylcarboxamide]",strong inhibitory effect
2,"COC(=O)N(C)CCOc1ccc(/N=C2/NC(=O)/C(=C/c3cnc(NC(=O)C4CC4)s3)S2)c(C)c1 [Compound 137, (2Z,5Z)-N-(2-{4-[(5-{[2-(cyclopropylcarbonylamino) (1,3-thiazol-5-yl)]methylene}-4-oxo(1,3-thiazolidin-2-ylidene))azamethyl]-3-methylphenoxy}ethyl) methoxy-N-methylcarboxamide]",strong inhibitory effect
3,"Cc1cc(OC2CCN(C)C2)ccc1/N=C1/NC(=O)/C(=C/c2cnc(NC(=O)C3CC3)s2)S1 (stereo not drawn) [Compound 139, (2Z,5Z)-cyclopropyl-N-{5-[(2-{[2-methyl-4-(1-methylpyrrolidin-3-yloxy)phenyl]azamethylene}-4-oxo(1,3-thiazolidin-5-ylidene))methyl] (1,3-thiazol-2-yl)}carboxamide]",strong inhibitory effect
